Assay results taken from patent US8580856B2, “Acetaminophen/ibuprofen combinations and method for their use” (McNeil-PPC, Inc., priority 2006, dated 2013).

Tested on: CO2-laser-induced painful stimulus on UV(B) irradiated skin
Assay: Laser somatosensory evoked potentials (LSEP) analgesia study, peak-to-peak amplitude
Assay type: in vivo, human
Conditions: for Estimate (difference between Treatment A and Treatment B), peak-to-peak LSEP amplitude: single oral dose, 24 subjects, cross-over; for Analgesic effectiveness versus placebo (peak-to-peak LSEP amplitudes), in words: FIG. 1 and Table C
Description: General Timing of Study: Each subject was treated on six different treatment days in a randomized, placebo-controlled, double-blind six sequence cross-over study, with each treatment being a different dosage combination of acetaminophen (“APAP”) and ibuprofen (“IBU”) administered in a random order. The total duration of the study per subject was about 46 days. The washout period between the six treatment days was about 7 days. About 2 to 14 days before receiving the first treatment, each subject participated in a one-day, pre-study examination visit.
On each treatment day, each subject stayed for approximately 7 hours at the treatment center, and followed the schedule set forth below in Table A:
Method of Pain Induction: A pulsed CO2 laser, which is commercially available from Synrad, Inc., under the tradename, “Synrad Infrared Gas Laser,” model E48−/−26W was used to induce painful stimuli in the desired skin location.
Evaluation of Pain Relief: Laser induced somatosensory evoked potentials (LSEPs), which served as an objective-quantitative measurement of pain, were generating using Vertex-EEG readings collected using a MUX800/UBV800 Multiplexer and universal bio-amplifier with integrated 15 Hz-impedance measurement, both of which are commercially available from Rimkus Medizintechnik. Twelve artifact free EEG-sections of 3 second duration were averaged in two steps: (1.) 3×4 original sweeps; and (2.) 3×1 averaged sweeps, digitally filtered (Gaussian phase-free software filter on the basis of a Fast Fourier Transform (FFT), with ranges from 1.0 Hz to 12.5 Hz (first step) and 1.5 to 10.0 Hz (second step)). Means were analyzed for a time window of 600 ms after laser stimulation to identify and measure the components of the evoked potentials (latencies and amplitudes). The N1 and P2 components, which are the pain related components of the EEG-signal, were derived as described above and analyzed in accordance with the procedure set forth in Schaffler K., et al., “Analgesic effects of low-dose intravenous orphenadrine in the state of capsaicin hyperalgesia. A randomised, placebo-controlled, double-blind cross-over study using laser somatosensory evoked potentials obtained from capsaicin-irritated skin in healthy volunteers,” 54(10) Arzneimittel-Forschung. 673-9 (2004). The N1-P2-peak-to peak amplitudes as well as the amplitudes of the individual N1 and P2 components were determined from the Vertex-EEG reading, and the correlated pain response was thereby determined in accordance with the procedure generally set forth in Seibel, K., et al., “Comparison of Two Different Preparations of Ibuprofen with Regard to the Time Course of their Analgesic Effect,” 54(8) Arnzeimittel-Forschung 444-51 (2004). The LSEP recording at hour −2:05 served as baseline (=t0). Drug induced analgesia was reflected by an amplitude reduction versus control or comparator treatment.
According to this procedure, a change in LSEP amplitude of about 1.0 to 3.0 μV was previously determined to be generally sufficient to allow for statistically significant discrimination between, for example, a given active agent vs. placebo, vs. other active agents, and/or vs. different dosages of the same active agent. An amplitude difference in the LSEP that exceeds about 2.0-2.5 μV (in peak-to-peak (PtP) amplitude) and > about 1.00-1.25 μV (for the single N1- and P2-components) was defined as clinically relevant.
The procedure set forth in Example 1 was independently performed on 24 subjects in a randomized, placebo-controlled, double-blind 6 sequence cross-over study. The six ibuprofen/acetaminophen treatments administered on the treatment days consisted of two white caplets and 4 red tablets comprised of the doses set forth in Table B: […]

[1] = Treatment B = Placebo, over the treatment period

In the case of `CC(=O)Nc1ccc(O)cc1` [APAP 1000 mg, acetaminophen], the “Estimate (difference between Treatment A and Treatment B), peak-to-peak LSEP amplitude” value (Treatment B = APAP250 + IBU300) is reported as 1.6417, the “Estimate (difference between Treatment A and Treatment B), peak-to-peak LSEP amplitude” value (Treatment B = APAP500 + IBU200) is reported as 1.5389 and the “Estimate (difference between Treatment A and Treatment B), peak-to-peak LSEP amplitude” value (Treatment B = APAP750 + IBU100) is reported as 2.7487. The “Estimate (difference between Treatment A and Treatment B), peak-to-peak LSEP amplitude” value (Treatment B = IBU400) was 0.01133, the “Estimate (difference between Treatment A and Treatment B), peak-to-peak LSEP amplitude” value [1] was −4.4020 and the “Analgesic effectiveness versus placebo (peak-to-peak LSEP amplitudes), in words” value was “significantly more effective analgesics than the placebo”.
For `CC(C)Cc1ccc(C(C)C(=O)O)cc1` (centres unmarked) [IBU 400 mg, ibuprofen], the “Estimate (difference between Treatment A and Treatment B), peak-to-peak LSEP amplitude” value [1] was −4.4134 and the “Analgesic effectiveness versus placebo (peak-to-peak LSEP amplitudes), in words” value was “significantly more effective analgesics than the placebo”.
